From patent US20220280661A1, “GLUCOCORTICOID RECEPTOR RADIOLIGANDS AND METHODS FOR THEIR PREPARATION AND USE” (The Regents of the University of California, priority 2019, published 2022)

What was measured:
[1] = Dynamic PET scan of [18F]-YJH08, time activity curves; format: in vivo, mouse; conditions: two phase exponential decay fit; C57B16/J mice
Procedure: To understand the biodistribution of [18F]-YJH08 in vivo, a dynamic PET scan over 60 min was first conducted in immunocompetent male C57B16/J mice (FIG. 3A). Prior to injection, the formulated dose of [18F]-YJH08 was passed through a sterile 0.22 μm membrane. Approximately 300 μCi was injected via tail vein in a volume of 100-150 μL per mouse. After a given period of uptake time, the mice were anesthetized with 2-3% isoflurane, and imaged with a Siemens Inveon micro PET/CT. For dynamic acquisitions, the mice were anesthetized prior to injection, and injected while positioned on the scanner bed. All imaging data was decay corrected, reconstructed, and analyzed with AMIDE software. Maximum intensity projections (MIPs) were generated by AMIDE software. Regions of interest (ROI) were manually placed to calculate SUV data from the dynamic acquisitions.
First, the radiotracer rapidly cleared from serum, and fitting the data with a two phase exponential decay curve estimated the fast and slow half-lives to be ˜21 sec and ˜760 sec, respectively. Moreover, liver uptake was prominent at very early time points post injection (0-300 sec), with continuous washout from ˜300-3600 sec.

[2] = target: T1, GR (Mus musculus, UniProt P06537); assay: [18F]-YJH08 biodistribution, dexamethasone treatment study; format: in vivo; conditions: 20 min after injection
T1 construct: from tissue; host or cells: tissues of C57BL6/J mice (intact or adrenalectomized), in vivo
T1 sequence (P06537 1-792): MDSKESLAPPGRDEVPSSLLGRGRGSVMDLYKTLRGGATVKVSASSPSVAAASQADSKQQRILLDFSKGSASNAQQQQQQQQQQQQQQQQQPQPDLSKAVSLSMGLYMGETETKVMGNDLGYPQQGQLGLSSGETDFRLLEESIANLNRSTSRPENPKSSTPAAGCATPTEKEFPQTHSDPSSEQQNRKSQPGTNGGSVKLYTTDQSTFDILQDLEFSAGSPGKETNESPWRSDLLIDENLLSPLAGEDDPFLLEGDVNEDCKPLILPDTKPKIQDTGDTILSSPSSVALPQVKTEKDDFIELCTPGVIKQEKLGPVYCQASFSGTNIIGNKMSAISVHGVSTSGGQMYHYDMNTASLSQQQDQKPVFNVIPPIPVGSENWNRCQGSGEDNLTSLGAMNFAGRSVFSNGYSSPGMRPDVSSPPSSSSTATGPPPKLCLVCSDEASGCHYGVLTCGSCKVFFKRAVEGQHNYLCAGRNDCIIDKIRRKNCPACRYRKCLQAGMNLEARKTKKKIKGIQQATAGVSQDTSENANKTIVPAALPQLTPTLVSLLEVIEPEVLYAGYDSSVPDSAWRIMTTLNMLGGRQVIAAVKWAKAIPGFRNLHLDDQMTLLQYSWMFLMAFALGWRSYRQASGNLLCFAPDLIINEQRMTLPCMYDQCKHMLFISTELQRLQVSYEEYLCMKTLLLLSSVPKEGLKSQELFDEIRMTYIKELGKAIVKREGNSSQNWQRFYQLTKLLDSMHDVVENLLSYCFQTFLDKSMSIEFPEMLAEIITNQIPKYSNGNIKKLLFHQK
Procedure: All animal experiments were conducted under the approval from Institutional Animal Care and Use Committee (IACUC) at UCSF. Male nu nu or C57BL6/J mice (4-6 weeks) purchased from Charles River. All the mice were well-housed in the USCF with free access to food and water. […] The mice were treated once daily for three days. At day 3, the mice received the radiotracer after the final gavage. Adrenalectomized mice were purchased from Charles River, and provided drinking water supplemented with NaCl (aq) per instructions.
For a broader survey of radiotracer biodistribution post mortem, mice were euthanized after radiotracer injection with CO2(g) asphyxiation and dissected at dedicated time points post injection. The blood and tissues were removed, washed, dried and weighed. The activity of each tissue was measured with a gamma counter. All data was decay corrected. PRISM software was used to express a percentage (% ID/g) of the injected dose per gram of tissue. […] The data are represented as mean standard deviation of the % ID/g. […]
The data are presented as a mean±standard deviation of the % ID/g. […] The P value indicates the result of an unpaired, two-tailed Student's t test.

[3] = mice given dexamethasone 100 mg/kg oral gavage once daily for three days
[4] = mice given vehicle by oral gavage once daily for three days

For COc1cccc2c1-c1ccc3c(c1C(Cc1ccc([18F])cc1)O2)C(C)=CC(C)(C)N3 (racemic) [[18F]-YJH08, [^18F]-5-(4-fluorobenzyl)-10-methoxy-2,2,4-trimethyl-2,5-dihydro-1H-chromeno[3,4-f]quinoline], the “serum clearance fast half-life” value [1] was ~0.35 min, the “serum clearance slow half-life” value [1] was ~12.7 min and the “radiotracer uptake, Adrenal Gland” value [2, 3] was 10.40 ± 0.7 % ID/g. For the same compound, the “radiotracer uptake, Blood” value [2, 3] was 2.95 ± 0.2 % ID/g, the “radiotracer uptake, Bone” value [2, 3] was 1.25 ± 0.2 % ID/g and the “radiotracer uptake, Brain” value [2, 3] was 1.31 ± 0.07 % ID/g. The “radiotracer uptake, Heart” value [2, 3] was 7.57 ± 0.9 % ID/g, the “radiotracer uptake, Kidney” value [2, 3] was 3.75 ± 0.5 % ID/g and the “radiotracer uptake, Large intestine” value [2, 3] was 1.77 ± 0.5 % ID/g. The “radiotracer uptake, Liver” value [2, 3] was 11.43 ± 2.1 % ID/g, the “radiotracer uptake, Lung” value [2, 3] was 3.92 ± 0.3 % ID/g and the “radiotracer uptake, Muscle” value [2, 3] was 1.71 ± 0.1 % ID/g. The “radiotracer uptake, Pancreas” value [2, 3] was 3.33 ± 0.1 % ID/g, the “radiotracer uptake, Small intestine” value [2, 3] was 34.43 ± 7.2 % ID/g and the “radiotracer uptake, Spleen” value [2, 3] was 4.23 ± 0.3 % ID/g. The “radiotracer uptake, Stomach” value [2, 3] was 0.48 ± 0.4 % ID/g, the “radiotracer uptake, Supraspinal BAT” value [2, 3] was 4.69 ± 0.7 % ID/g and the “radiotracer uptake, Adrenal Gland” value [2, 4] was 17.29 ± 6.7 % ID/g. The “radiotracer uptake, Blood” value [2, 4] was 3.98 ± 0.08 % ID/g, the “radiotracer uptake, Bone” value [2, 4] was 2.17 ± 0.2 % ID/g and the “radiotracer uptake, Brain” value [2, 4] was 2.05 ± 0.03 % ID/g. For the same compound, the “radiotracer uptake, Heart” value [2, 4] was 10.66 ± 0.4 % ID/g, the “radiotracer uptake, Kidney” value [2, 4] was 8.49 ± 1.3 % ID/g and the “radiotracer uptake, Large intestine” value [2, 4] was 1.57 ± 0.4 % ID/g. For the same compound, the “radiotracer uptake, Liver” value [2, 4] was 18.46 ± 2.9 % ID/g, the “radiotracer uptake, Lung” value [2, 4] was 6.26 ± 0.4 % ID/g and the “radiotracer uptake, Muscle” value [2, 4] was 2.46 ± 0.2 % ID/g. The “radiotracer uptake, Pancreas” value [2, 4] was 6.22 ± 1.6 % ID/g, the “radiotracer uptake, Small intestine” value [2, 4] was 19.12 ± 5.7 % ID/g and the “radiotracer uptake, Spleen” value [2, 4] was 3.79 ± 0.4 % ID/g. For the same compound, the “radiotracer uptake, Stomach” value [2, 4] was 1.74 ± 0.8 % ID/g and the “radiotracer uptake, Supraspinal BAT” value [2, 4] was 10.52 ± 2.9 % ID/g.
